Where a SMILES comes first, the peptide text is derived from it. [ ]: non-standard residue; d: D form. The star is where a group is joined. Benzoyl(4-(4-EtNHCO-PhO)) = CCNC(=O)c1ccc(Oc2ccc(C(=O)*)cc2)cc1; Benzoyl(4-O-C6H4-4-CONHMe) = CNC(=O)c1ccc(Oc2ccc(C(=O)*)cc2)cc1; Benzoyl(4-OPh(4-CONH2)) = NC(=O)c1ccc(Oc2ccc(C(=O)*)cc2)cc1; X11 = O=C(O)CCCCNC(=O)c1ccc(Oc2ccc(C(=O)*)cc2)cc1; X4 = NC(=O)CCCCNC(=O)c1ccc(Oc2ccc(C(=O)*)cc2)cc1; NMeI = CC[C@H](C)[C@H](NC)C(=O)O; NMeE = CN[C@@H](CCC(=O)O)C(=O)O; NMeV = CN[C@H](C(=O)O)C(C)C; β3hP = O=C(O)C[C@@H]1CCCN1; Orn = NCCC[C@H](N)C(=O)O; Dab = NCC[C@H](N)C(=O)O; X18 = NC(=O)[C@H](N)CN*; Ahx = NCCCCCC(=O)O; Ava = NCCCCC(=O)O
Biological target: T1, MMP2 (Homo sapiens, UniProt P08253)
T1 sequence (P08253 110-660): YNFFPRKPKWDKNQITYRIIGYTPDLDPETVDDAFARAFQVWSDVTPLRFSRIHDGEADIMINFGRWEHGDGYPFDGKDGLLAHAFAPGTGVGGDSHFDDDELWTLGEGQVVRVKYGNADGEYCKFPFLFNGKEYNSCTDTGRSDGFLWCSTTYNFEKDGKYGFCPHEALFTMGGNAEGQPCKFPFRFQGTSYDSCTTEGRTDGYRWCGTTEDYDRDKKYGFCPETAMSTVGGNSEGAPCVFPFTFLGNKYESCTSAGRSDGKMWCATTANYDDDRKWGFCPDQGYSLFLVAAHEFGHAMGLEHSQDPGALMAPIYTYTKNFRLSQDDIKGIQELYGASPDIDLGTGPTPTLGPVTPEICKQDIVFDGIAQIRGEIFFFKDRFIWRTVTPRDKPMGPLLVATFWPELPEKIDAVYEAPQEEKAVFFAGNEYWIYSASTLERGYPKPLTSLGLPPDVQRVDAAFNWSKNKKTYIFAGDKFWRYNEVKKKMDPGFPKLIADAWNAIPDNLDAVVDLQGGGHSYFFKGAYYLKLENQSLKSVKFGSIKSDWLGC
Experiment: Inhibitory effects on human MMP2 (Method 1), enzyme assay with MOCAc-Pro-Leu-Gly-Leu-A2pr(Dnp)-Ala-Arg-NH2 substrate, 96-well
Format: biochemical
Details: Test Example No. 1-1 (Method 1, 96-well microplate); read-out: Human MMP2, IC50
Procedure: In a reaction solution [50 mmol/L Tris-HCl (pH 7.5), 150 mmol/L NaCl, 10 mmol/L CaCl2, 0.05% Brij L23], 100 μg/mL human recombinant MMP2 enzyme and 1 mmol/L 4-Aminophenylmercuric acetate were mixed together, and reacted at 37° C. for 60 minutes. The human MMP2 activated through the reaction was poured into a 96-well microplate to reach a final concentration of 0.7 or 7 ng/mL.

| SMILES | IC50 [nM] |
| --- | --- |
| CC[C@H](C)[C@@H](C(=O)N1CCC[C@H]1CC(N)=O)N(C)C(=O)[C@H](CC(C)C)NC(=O)[C@H](CCN)NC(=O)[C@H](CC(=O)O)NC(=O)[C@H](CCCCN)NC(=O)CCCCNC(=O)c1ccc(Oc2ccc(C(=O)NC)cc2)cc1 [Compound 185] ({Benzoyl(4-O-C6H4-4-CONHMe)-Ava}-KD[Dab]L[NMeI][β3hP]-NH2; N-terminus assumed) | 1 |
| CNC(=O)c1ccc(Oc2ccc(C(=O)NCCCCCC(=O)N[C@@H](CCCCN)C(=O)N[C@@H](CC(=O)O)C(=O)N[C@@H](CCN)C(=O)N[C@@H](CC(C)C)C(=O)N(C)[C@@H](CCC(=O)O)C(=O)N3CCC[C@H]3CC(N)=O)cc2)cc1 [Compound 186] ({Benzoyl(4-O-C6H4-4-CONHMe)-Ahx}-KD[Dab]L[NMeE][β3hP]-NH2; N-terminus assumed) | 2 |
| CC[C@H](C)[C@@H](C(=O)N1CCC[C@H]1CC(N)=O)N(C)C(=O)[C@H](CC(C)C)NC(=O)[C@H](CCN)NC(=O)[C@H](CC(=O)O)NC(=O)[C@H](CCCNC(=N)N)NC(=O)CCCCCNC(=O)c1ccc(Oc2ccc(C(=O)NC)cc2)cc1 [Compound 191] ({Benzoyl(4-O-C6H4-4-CONHMe)-Ahx}-RD[Dab]L[NMeI][β3hP]-NH2; N-terminus assumed) | 2.7 |
| CCNC(=O)c1ccc(Oc2ccc(C(=O)NCCCCC(=O)N[C@@H](CCCCN)C(=O)N[C@@H](CC(=O)O)C(=O)N[C@@H](CCN)C(=O)N[C@@H](CC(C)C)C(=O)N(C)[C@H](C(=O)N3CCC[C@H]3CC(N)=O)[C@@H](C)CC)cc2)cc1 [Compound 193] ({Benzoyl(4-(4-EtNHCO-PhO))-Ava}-KD[Dab]L[NMeI][β3hP]-NH2; N-terminus assumed) | 1.7 |
| CCNC(=O)c1ccc(Oc2ccc(C(=O)NCCCCC(=O)N[C@@H](CCCNC(=N)N)C(=O)N[C@@H](CC(=O)O)C(=O)N[C@@H](CCN)C(=O)N[C@@H](CC(C)C)C(=O)N(C)[C@H](C(=O)N3CCC[C@H]3CC(N)=O)[C@@H](C)CC)cc2)cc1 [Compound 197] ({Benzoyl(4-(4-EtNHCO-PhO))-Ava}-RD[Dab]L[NMeI][β3hP]-NH2; N-terminus assumed) | 2.6 |
| CCNC(=O)c1ccc(Oc2ccc(C(=O)NCCCCCC(=O)N[C@@H](CCCNC(=N)N)C(=O)N[C@@H](CC(=O)O)C(=O)N[C@@H](CCN)C(=O)N[C@@H](CC(C)C)C(=O)N(C)[C@H](C(=O)N3CCC[C@H]3CC(N)=O)[C@@H](C)CC)cc2)cc1 [Compound 198] ({Benzoyl(4-(4-EtNHCO-PhO))-Ahx}-RD[Dab]L[NMeI][β3hP]-NH2; N-terminus assumed) | 5.1 |
| CC(C)C[C@H](NC(=O)[C@H](CCN)NC(=O)[C@H](CC(=O)O)NC(=O)[C@H](CCC(=O)O)NC(=O)CCCCNC(=O)c1ccc(Oc2ccc(C(=O)NCCCCC(N)=O)cc2)cc1)C(=O)N(C)[C@@H](CCC(=O)O)C(=O)N1CCC[C@H]1CC(N)=O [Compound 199] ({X4-Ava}-ED[Dab]L[NMeE][β3hP]-NH2; N-terminus assumed) | 1.4 |
| CC[C@H](C)[C@@H](C(=O)N1CCC[C@H]1CC(N)=O)N(C)C(=O)[C@H](CC(C)C)NC(=O)[C@H](CCN)NC(=O)[C@H](CC(=O)O)NC(=O)[C@H](CCC(=O)O)NC(=O)CCCCNC(=O)c1ccc(Oc2ccc(C(=O)NCCCCC(=O)O)cc2)cc1 [Compound 200] ({X11-Ava}-ED[Dab]L[NMeI][β3hP]-NH2; N-terminus assumed) | 7.4 |

Other lines, results leading:

| IC50 [nM] | SMILES |
| --- | --- |
| 0.61 | CNC(=O)c1ccc(Oc2ccc(C(=O)NCCCCC(=O)N[C@@H](CCCCN)C(=O)N[C@@H](CC(=O)O)C(=O)N[C@@H](CCN)C(=O)N[C@@H](CC(C)C)C(=O)N(C)[C@@H](CCC(=O)O)C(=O)N3CCC[C@H]3CC(N)=O)cc2)cc1 [Compound 184] ({Benzoyl(4-O-C6H4-4-CONHMe)-Ava}-KD[Dab]L[NMeE][β3hP]-NH2; N-terminus assumed) |
| 2.8 | CC[C@H](C)[C@@H](C(=O)N1CCC[C@H]1CC(N)=O)N(C)C(=O)[C@H](CC(C)C)NC(=O)[C@H](CCN)NC(=O)[C@H](CC(=O)O)NC(=O)[C@H](CCCCN)NC(=O)CCCCCNC(=O)c1ccc(Oc2ccc(C(=O)NC)cc2)cc1 [Compound 187] ({Benzoyl(4-O-C6H4-4-CONHMe)-Ahx}-KD[Dab]L[NMeI][β3hP]-NH2; N-terminus assumed) |
| 0.81 | CNC(=O)c1ccc(Oc2ccc(C(=O)NCCCCC(=O)N[C@@H](CCCNC(=N)N)C(=O)N[C@@H](CC(=O)O)C(=O)N[C@@H](CCN)C(=O)N[C@@H](CC(C)C)C(=O)N(C)[C@@H](CCC(=O)O)C(=O)N3CCC[C@H]3CC(N)=O)cc2)cc1 [Compound 188] ({Benzoyl(4-O-C6H4-4-CONHMe)-Ava}-RD[Dab]L[NMeE][β3hP]-NH2; N-terminus assumed) |
| 0.86 | CC[C@H](C)[C@@H](C(=O)N1CCC[C@H]1CC(N)=O)N(C)C(=O)[C@H](CC(C)C)NC(=O)[C@H](CCN)NC(=O)[C@H](CC(=O)O)NC(=O)[C@H](CCCNC(=N)N)NC(=O)CCCCNC(=O)c1ccc(Oc2ccc(C(=O)NC)cc2)cc1 [Compound 189] ({Benzoyl(4-O-C6H4-4-CONHMe)-Ava}-RD[Dab]L[NMeI][β3hP]-NH2; N-terminus assumed) |
| 1.8 | CNC(=O)c1ccc(Oc2ccc(C(=O)NCCCCCC(=O)N[C@@H](CCCNC(=N)N)C(=O)N[C@@H](CC(=O)O)C(=O)N[C@@H](CCN)C(=O)N[C@@H](CC(C)C)C(=O)N(C)[C@@H](CCC(=O)O)C(=O)N3CCC[C@H]3CC(N)=O)cc2)cc1 [Compound 190] ({Benzoyl(4-O-C6H4-4-CONHMe)-Ahx}-RD[Dab]L[NMeE][β3hP]-NH2; N-terminus assumed) |
| 1.9 | CCNC(=O)c1ccc(Oc2ccc(C(=O)NCCCCC(=O)N[C@@H](CCCCN)C(=O)N[C@@H](CC(=O)O)C(=O)N[C@@H](CCN)C(=O)N[C@@H](CC(C)C)C(=O)N(C)[C@@H](CCC(=O)O)C(=O)N3CCC[C@H]3CC(N)=O)cc2)cc1 [Compound 192] ({Benzoyl(4-(4-EtNHCO-PhO))-Ava}-KD[Dab]L[NMeE][β3hP]-NH2; N-terminus assumed) |
| 3.7 | CCNC(=O)c1ccc(Oc2ccc(C(=O)NCCCCCC(=O)N[C@@H](CCCCN)C(=O)N[C@@H](CC(=O)O)C(=O)N[C@@H](CCN)C(=O)N[C@@H](CC(C)C)C(=O)N(C)[C@@H](CCC(=O)O)C(=O)N3CCC[C@H]3CC(N)=O)cc2)cc1 [Compound 194] ({Benzoyl(4-(4-EtNHCO-PhO))-Ahx}-KD[Dab]L[NMeE][β3hP]-NH2; N-terminus assumed) |
| 1.7 | CCNC(=O)c1ccc(Oc2ccc(C(=O)NCCCCC(=O)N[C@@H](CCCNC(=N)N)C(=O)N[C@@H](CC(=O)O)C(=O)N[C@@H](CCN)C(=O)N[C@@H](CC(C)C)C(=O)N(C)[C@@H](CCC(=O)O)C(=O)N3CCC[C@H]3CC(N)=O)cc2)cc1 [Compound 196] ({Benzoyl(4-(4-EtNHCO-PhO))-Ava}-RD[Dab]L[NMeE][β3hP]-NH2; N-terminus assumed) |
| 1.4 | CC[C@H](C)[C@@H](C(=O)N1CCC[C@H]1CC(N)=O)N(C)C(=O)[C@H](CC(C)C)NC(=O)[C@H](CCN)NC(=O)[C@H](CC(=O)O)NC(=O)[C@H](CCC(=O)O)NC(=O)CCCCNC(=O)c1ccc(Oc2ccc(C(=O)NCCCCC(N)=O)cc2)cc1 [Compound 201] ({X4-Ava}-ED[Dab]L[NMeI][β3hP]-NH2; N-terminus assumed) |
| 0.35 | CC(C)C[C@H](NC(=O)[C@H](CCN)NC(=O)[C@H](CC(=O)O)NC(=O)[C@H](CCC(N)=O)NC(=O)[C@@H](N)CCCNC(=O)c1ccc(Oc2ccc(C(N)=O)cc2)cc1)C(=O)N(C)[C@H](C(=O)NC[C@@H](N)C(N)=O)C(C)C [Compound 536] (H-[Orn](Benzoyl(4-OPh(4-CONH2)))QD[Dab]L[NMeV]-X18) |

Source: patent US20240199692A1 (priority 2019, published 2024)
